{"source": "patent US20240252457A1", "about": "“Treatment or Prevention of Ischaemia Reperfusion Injury” (Cambridge Enterprise Limited, priority 2021, published 2024)", "key": {"MCT1": {"target": "T1, MCT1 (Mus musculus, UniProt P53986)", "T1 construct": "from tissue; host or cells: isolated Langendorff-perfused murine heart", "T1 sequence (P53986 1-493)": "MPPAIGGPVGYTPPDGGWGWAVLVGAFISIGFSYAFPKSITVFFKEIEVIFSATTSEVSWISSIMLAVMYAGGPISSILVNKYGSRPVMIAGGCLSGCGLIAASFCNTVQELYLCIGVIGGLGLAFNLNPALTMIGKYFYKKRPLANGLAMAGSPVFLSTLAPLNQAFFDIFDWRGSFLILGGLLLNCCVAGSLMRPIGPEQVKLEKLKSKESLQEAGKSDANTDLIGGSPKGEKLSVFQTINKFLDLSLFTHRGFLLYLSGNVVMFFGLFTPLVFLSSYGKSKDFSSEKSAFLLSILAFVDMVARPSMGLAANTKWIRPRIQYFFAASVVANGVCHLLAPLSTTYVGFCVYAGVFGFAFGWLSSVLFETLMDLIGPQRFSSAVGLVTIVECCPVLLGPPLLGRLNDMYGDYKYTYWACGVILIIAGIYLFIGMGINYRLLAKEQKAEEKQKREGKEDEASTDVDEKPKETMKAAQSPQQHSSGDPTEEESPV", "T1 sequence (P18572 140-389 partner limits assumed)": "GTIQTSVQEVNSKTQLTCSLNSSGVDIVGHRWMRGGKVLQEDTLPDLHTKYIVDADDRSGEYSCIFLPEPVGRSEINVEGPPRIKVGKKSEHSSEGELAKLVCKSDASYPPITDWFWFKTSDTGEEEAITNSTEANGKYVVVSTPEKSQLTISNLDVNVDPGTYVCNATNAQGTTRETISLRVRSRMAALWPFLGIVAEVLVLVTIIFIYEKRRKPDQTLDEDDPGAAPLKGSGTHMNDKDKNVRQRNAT", "assay": "Malonate levels in Langendorff hearts perfused at pH 6 with DSM ± lactate or MCT1 inhibitor", "design": "species or system murine", "conditions": "pH 6, 5 min, 5 mM DSM; lactate 50 mM, AR-C141990 10 μM", "from_the_text": "Malonate uptake into the Langendorff perfused heart was blocked by the MCT1 inhibitor AR-C141990, in the perfusion medium, and by excess lactate."}, "[1]": {"conditions": "cited from earlier work"}, "C2C12 cells": {"tested_on": "C2C12 cells", "assay": "Malonate / 3A3OPA uptake in C2C12 cells at different pH (LC-MS/MS)", "format": "cell-based, mouse", "conditions": "for intracellular uptake, effect of lowered pH: 15 min, pH 6 vs 7.4 (and 8)", "protocol": "C2C12 cells were incubated with malonate at pH 8, 7.4 or 6 and the levels within cells measured by LC-MS/MS (mean±/−S.E.M., n=4).\nC2C12 cells were treated with either malonate or 3-amino-3-oxypropanoic acid at pH 7.4 or 6 and their intracellular levels measured by LC-MS/MS (mean±/−S.E.M., n=6)."}, "MCAO model": {"tested_on": "MCAO model", "assay": "Transient middle cerebral artery occlusion (MCAO) stroke model", "format": "in vivo, mice", "conditions": "i.v. for 20 min starting just prior to reperfusion; 45 min ischaemia, 2 h reperfusion", "from_the_text": "Male C57B16J mice, 6-8 weeks old, were anesthetized with 3% isoflurane and anaesthesia was maintained on 1.5-2% isoflurane. A Doppler flowmetry probe (Perimed, Sweden) was attached to the skull to continuously monitor the cerebral blood flow. Left common carotid artery (CCA) and left external carotid artery were exposed and permanently ligated. Left internal common carotid artery was clamped temporarily. Next, an incision was made on CCA and a filament with a silicon tip (0.22 mm in diameter, 2-3 mm in length, Doccol, USA) was inserted and guided forward into internal carotid artery until it reached middle cerebral artery (MCA). The occlusion of MCA was confirmed by seeing at least 70% drop in cerebral blood flow. […]\nAt the end of reperfusion, mice were sacrificed by cervical dislocation; brain was collected and sliced at 2 mm thicknesses and stained with 2% triphenyltetrazolium chloride in saline at 37 C for 10-15 min. […] The healthy tissue area (red-stained) in both hemispheres was measured using ImageJ. The infarct volume % was calculated by first calculating the volume of healthy tissue in each hemisphere (Σ area of each slice×thickness of slice), then by the formula: ((volume of healthy tissue in uninjured hemisphere−volume of healthy tissue in injured hemisphere)÷volume of healthy tissue in uninjured hemisphere)×100."}, "[2]": {"conditions": "cited from earlier work", "remark": "listed apart in the source"}, "[3]": {"assay": "Malonate uptake in vivo, tissue levels after tail vein bolus", "design": "species or system mouse", "conditions": "160 mg/kg tail vein bolus, 5 min", "protocol": "For tissue analysis, tissues were weighed and extracted in 25 μl/mg extraction buffer containing internal standard and homogenised in a Precellys 24 homogeniser. Homogenates were centrifuged to remove insoluble debris. Extracts were analysed by LC-MS/MS and the levels of malonate assessed by interpolation of a malonate standard curve."}, "[4]": {"tested_on": "C2C12 mouse myoblast cells", "assay": "Malonate uptake in vitro in C2C12 cells (dose and time course)", "format": "cell-based", "conditions": "for malonate uptake into cells (words): 0.25, 1 or 5 mM, 0 to 240 min; for intracellular malonate concentration: 5 min, cell volume 260 mg protein/ml", "protocol": "We first explored whether malonate could be taken up by cells in culture. C2C12 mouse myoblast cells were plated at 300,000 cells/well and adhered overnight. […] Cells were extracted for mass spectrometry with 500 μl extraction buffer (50% methanol, 30% acetonitrile and 20% water) with 1 nmol ^13C-malonate internal standard centrifuged to remove insoluble debris."}, "Langendorff heart": {"tested_on": "Langendorff heart", "assay": "Lactate levels in the Langendorff heart after 20 min ischemia and 1 min reperfusion", "conditions": "5 mM DSM, 20 min ischemia", "from_the_text": "Compared to reperfusion alone, lactate levels decreased in the malonate-treated hearts."}, "H9c2 myoblasts": {"tested_on": "H9c2 myoblasts", "assay": "Intracellular malonate and succinate in H9c2 myoblasts at different pH (LC-MS/MS)", "format": "cell-based", "conditions": "H9c2, DSM 1 or 5 mM, 15 min"}, "murine LAD MI model": {"tested_on": "murine LAD MI model", "assay": "Infarct size in murine LAD MI model (TTC staining)", "format": "in vivo", "protocol": "Mice were subjected to left anterior descending coronary artery ligation heart attack model (30 min ischaemia, 2 hr reperfusion) and malonate infused either before the onset of ischaemia or during initial reperfusion. Infarct size was determined by staining the heart with triphenyltetrazolium chloride (mean±/−S.E.M., n=5-8).\nThus, malonate was confirmed to be cardioprotective when administered at the point of reperfusion after ischaemia.\nCyclosporin A is a known inhibitor of the mitochondrial permeability transition pore (PTP)."}, "[5]": {"tested_on": "murine Langendorff perfused heart", "assay": "Malonate uptake in Langendorff-perfused hearts (pH- and ischaemia-dependence, LC-MS/MS)", "protocol": "Malonate (5 mM) was infused into Langendorff perfused mouse hearts at either pH 7.4 or 6. The heart flushed to remove vessel malonate and malonate levels measured by LC-MS/MS (mean±/−S.E.M., n=4).\nLangendorff mouse hearts were reperfused with malonate (5 mM) after either 0, 5, 10, or 20 min ischaemia). The heart flushed to remove vessel malonate and malonate levels measured by LC-MS/MS (mean±/−S.E.M., n=4-5)."}, "pKa and ionisation state": {"assay": "pKa and ionisation state", "format": "physicochemical", "conditions": "pH 6.4", "from_the_text": "In 3A3OPA, one carboxylic acid has been replaced with a neutral amido group leaving a single carboxylic acid of pKa˜4.75. Thus, at pH 7.4 3A3OPA resembles the monocarboxylate form of malonate."}}, "note": "“Also recorded” adds a separate entry of the source."}
{"smiles": "CC(O)C(=O)O", "note": "(stereo not shown) [lactate]", "values": [{"measurement": "effect on malonate uptake into the Langendorff perfused heart", "setting": "MCT1", "result": "blocked"}]}
{"smiles": "CC(C)Cn1c(=O)n(C)c(=O)c2c(C(=O)N3CC[C@@H](O)C3)c(Cc3ccnc4ccccc34)sc21", "note": "[AR-C141990]", "values": [{"measurement": "effect on malonate uptake into the Langendorff perfused heart", "setting": "MCT1", "result": "blocked"}]}
{"smiles": "NC(=O)CC(=O)O", "note": "[3A3OPA, 3-amino-3-oxypropanoic acid]", "values": [{"measurement": "pKa of single carboxylic acid", "setting": "[1]", "result": "~4.75"}, {"measurement": "uptake into cells at pH 7.4 compared with malonate", "setting": "C2C12 cells; 5 mM, pH 7.4", "result": "more 3A3OPA being taken up into cells at pH 7.4 than malonate"}, {"measurement": "intracellular uptake, effect of lowered pH", "setting": "C2C12 cells", "result": "changed negligibly"}]}
{"smiles": "COC(=O)CC(=O)OC", "note": "[DMM, dimethyl malonate]", "values": [{"measurement": "necrotic brain infarct volume", "setting": "MCAO model", "result": "not to be protective; also recorded: no significant difference"}, {"measurement": "protection against IR injury", "setting": "[2]; administered prior to and throughout ischaemia (WO 2016/001686)", "result": "protective"}]}
{"smiles": "O=C([O-])CC(=O)[O-].[Na+].[Na+]", "note": "[DSM, disodium malonate]", "values": [{"measurement": "tissue levels of malonate, brain", "setting": "[3]", "result": "uptake in the brain"}, {"measurement": "tissue levels of malonate, heart", "setting": "[3]", "result": "significant amounts"}, {"measurement": "tissue levels of malonate, kidney", "setting": "[3]", "result": "particularly high"}, {"measurement": "tissue levels of malonate, liver", "setting": "[3]", "result": "significant amounts"}, {"measurement": "intracellular malonate levels", "setting": "[4]; 5 mM DSM, after 5 min", "result": "~2", "unit": "nmol/mg protein"}, {"measurement": "malonate uptake into cells (words)", "setting": "[4]; listed as Malonate", "result": "both dose and time-dependent"}, {"measurement": "malonate uptake into cells (words)", "setting": "[4]; listed as disodium malonate", "result": "rapid malonate uptake"}, {"measurement": "intracellular malonate concentration", "setting": "[4]; 250 μM malonate", "result": "about 50 μM"}, {"measurement": "intracellular malonate concentration", "setting": "[4]; 5 mM malonate", "result": "~500", "unit": "µM"}, {"measurement": "intracellular malonate levels", "setting": "[4]; incubated with 250 μM disodium malonate", "result": "0.2-0.4 nmol/mg protein"}, {"measurement": "lactate levels compared to reperfusion alone", "setting": "Langendorff heart", "result": "decreased"}, {"measurement": "necrotic brain infarct volume", "setting": "MCAO model", "result": "decreased"}, {"measurement": "levels of malonate in the cell at pH 6 vs pH 7.4 or 8", "setting": "H9c2 myoblasts", "result": "significantly higher"}, {"measurement": "succinate levels (malonate-dependent SDH inhibition) at low pH", "setting": "H9c2 myoblasts", "result": "greater succinate accumulation"}, {"measurement": "infarct size (cardioprotection)", "setting": "murine LAD MI model; 160 mg/kg infusion at reperfusion", "result": "cardioprotective"}, {"measurement": "infarct size, cardioprotection in combination with cyclosporin A", "setting": "murine LAD MI model; DSM 160 mg/kg with cyclosporin A 10 mg/kg at reperfusion", "result": "additive to cyclosporin A alone"}, {"measurement": "intracellular uptake, effect of lowered pH", "setting": "C2C12 cells", "result": "greatly enhanced"}, {"measurement": "malonate uptake in heart after ischaemia", "setting": "[5]; 0, 5, 10 or 20 min ischaemia, reperfused with 5 mM DSM pH 7.4", "result": "ischemic time-dependent uptake"}, {"measurement": "malonate uptake in heart, infused at low pH vs neutral pH", "setting": "[5]; 5 mM DSM, pH 6 vs pH 7.4", "result": "greatly enhanced"}, {"measurement": "protection against myocardial IR injury", "setting": "[2]; small animal ex vivo and large animal models", "result": "protective"}, {"measurement": "fraction in monocarboxylate form", "setting": "pKa and ionisation state", "result": "approximately 16%"}]}
